Measurements taken from patent publication US7452894B2, “Purine derivatives as purinergic receptor antagonists” (Vernalis Research Limited, priority 2001, dated 2008).
Like-named read-outs stand apart in the source and are kept apart here.

Experiments:
[1] = target: human adenosine A2A receptors (Homo sapiens, UniProt P29274); assay: Binding affinities at hA2A receptors, displacement of [3H]-CGS 21680
adenosine A2A receptor = conditions: cited from earlier work
[2] = cited from earlier work
[3] = human adenosine A2A receptor, radioligand [3H]-CGS 21680

human adenosine A2A receptors, sequence (P29274 whole entry): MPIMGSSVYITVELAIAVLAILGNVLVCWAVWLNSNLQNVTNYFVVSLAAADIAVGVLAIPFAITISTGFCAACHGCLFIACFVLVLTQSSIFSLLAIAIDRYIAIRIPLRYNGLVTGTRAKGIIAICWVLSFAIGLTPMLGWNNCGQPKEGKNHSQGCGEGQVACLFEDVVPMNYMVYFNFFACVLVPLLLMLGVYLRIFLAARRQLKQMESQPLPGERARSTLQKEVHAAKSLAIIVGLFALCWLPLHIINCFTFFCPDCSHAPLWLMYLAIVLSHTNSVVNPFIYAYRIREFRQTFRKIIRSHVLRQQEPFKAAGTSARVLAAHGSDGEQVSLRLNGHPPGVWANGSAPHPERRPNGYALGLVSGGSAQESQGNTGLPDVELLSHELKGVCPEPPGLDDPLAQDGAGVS

| Structure (SMILES) | Ki [1] [nM] | melting point | further results |
| --- | --- | --- | --- |
| CSc1nc(-c2ccco2)c2nc[nH]c2n1 [Example 13, 6-(2-Furyl)-2-methylthio-1H-purine] | 12 | 239.5 to 239.9 °C |  |
| Nc1nc(-c2ccco2)c2ncn(C(=O)OCc3ccccc3)c2n1 [Example 106, Benzyl 2-amino-6-(2-furyl)-9H-purine-9-carboxylate] | 1 | 161.7 °C (dec.) |  |
| COc1nc(-c2ccco2)c2ncn(C(=O)NCc3ccccc3)c2n1 [Example 112, N-Benzyl-2-methoxy-6-(2-furyl)-9H-purine-9-carboxamide] |  |  | Ki [1, 3]: 8 nM |
| CN(Cc1ccccc1)C(=O)n1cnc2c(-c3ccco3)nc(N)nc21 [Example 118, 2-Amino-N-benzyl-6-(2-furyl)-N-methyl-9H-purine-9-carboxamide] | 3 |  |  |
| Nc1nc(-c2ccco2)c2ncn(Cc3cccc(Cl)c3)c2n1 [Example 125, 9-(3-Chlorobenzyl)-6-(2-furyl)-9H-purine-2-amine] | 6 |  |  |
| Cc1cccc(Cn2cnc3c(-c4ccco4)nc(N)nc32)c1 [Example 126, 6-(2-Furyl)-9-(3-methylbenzyl)-9H-purine-2-amine] | 7 |  |  |
| Cc1ccc(Cn2cnc3c(-c4ccco4)nc(N)nc32)cc1 [Example 127, 6-(2-Furyl)-9-(4-methylbenzyl)-9H-purine-2-amine] | 9 |  |  |
| Nc1nc(-c2ccco2)c2ncn(CC(=O)Nc3cccc(Cl)c3)c2n1 [Example 141, 2-Amino-N-(3-chlorophenyl)-6-(2-furyl)-9H-purine-9-acetamide] | 36 | 278 °C (dec.) |  |
| Nc1nc(-c2ccco2)c2ncn(Cc3ccccc3F)c2n1 [Example 157, 9-(2-Fluorobenzyl)-6-(2-furyl)-9H-purine-2-amine] | 4 |  |  |
| Nc1nc(-c2ccco2)c2ncn(S(=O)(=O)c3ccc(Br)cc3)c2n1 [Example 162, 9-(4-Bromophenyl)sulphonyl-6-(2-furyl)-9H-purine-2-amine] | 8 |  |  |
| Nc1nc(-c2ccco2)c2ncn(S(=O)(=O)/C=C/c3ccccc3)c2n1 [Example 185, 6-(2-Furyl)-9-(2-phenylethenyl)sulphonyl-9H-purine-2-amine] | 7 |  |  |
| Nc1nc(-c2ccco2)c2ncn(CCCc3cccnc3)c2n1 [Example 189, 6-(2-Furyl)-9-(3-(3-pyridyl)propyl)-9H-purine-2-amine] | 21 |  |  |
| Nc1cccc(Cn2cnc3c(-c4ccco4)nc(N)nc32)c1 [Example 192, 9-(3-Aminobenzyl)-6-(2-furyl)-9H-purine-2-amine] | 24 |  |  |
| Nc1nc(-c2ccco2)c2ncn(C(=O)NCc3ccco3)c2n1 [Example 201, 2-Amino-6-(2-furyl)-N-(2-furylmethyl)-9H-purine-9-carboxamide] |  |  | Ki [1, 3]: 2 nM |
| Nc1nc(-c2ccco2)c2ncn(C(=O)NCc3cccs3)c2n1 [Example 202, 2-Amino-6-(2-furyl)-N-(2-thienylmethyl)-9H-purine-9-carboxamide] |  |  | Ki [1, 3]: 1 nM |
| Cc1ccc(Cn2cnc3c(-c4ccc(C)o4)nc(N)nc32)cc1 [Example 208, 9-(4-Methylbenzyl)-6-(5-methyl-2-furyl)-9H-purine2-amine] | 6 | 210 to 220 °C (dec.) |  |
| Cc1cccc(Cn2cnc3c(-c4ccco4)nc(N)nc32)n1 [Example 212, 6-(2-Furyl)-9-(6-methyl-2-pyridyl)methyl-9H-purine-2-amine] | 35 |  |  |
| Cn1cnc(S(=O)(=O)Nc2ccccc2Cn2cnc3c(-c4ccco4)nc(N)nc32)c1 [Example 235, 6-(2-Furyl)-9-(2-(1-methyl-1H-imidazol-4-ylsulphonylamino)benzyl)-9H-purine-2-amine] | 4 | 253.1 to 257.1 °C |  |
| Nc1nc(-c2ccco2)c2ncn(Cc3ccc(Cl)s3)c2n1 [Example 240, 9-(5-Chloro-2-thienylmethyl)-6-(2-furyl)-9H-purine-2-amine] | 7 | 210.9 to 211.5 °C |  |
| Cc1csc(-c2nc(N)nc3c2ncn3Cc2ccccc2F)n1 [Example 244, 9-(2-Fluorobenzyl)-6-(4-methyl-2-thiazolyl)-9H-purine-2-amine] | 7 | 259.2 °C |  |
| Nc1nc(-c2ccco2)c2ncn(Cc3cc([N+](=O)[O-])ccc3F)c2n1 [Example 259, 9-(2-Fluoro-5-nitrobenzyl)-6-(2-furyl)-9H-purine-2-amine] | 11 |  |  |
| CCCn1c(=O)c2c(nc(/C=C/c3ccc(OC)c(OC)c3)n2C)n(CCC)c1=O [KF 17837, (E)-8-(3,4-dimethoxystyryl)-1,3-dipropyl-7-methylxanthine] |  |  | anticataleptic effects of a subthreshold dose of L-DOPA plus benserazide (adenosine A2A receptor; in vivo): potentiated; catalepsy induced by haloperidol and reserpine (adenosine A2A receptor; in vivo): reduced; cataleptic responses induced by intracerebroventricular CGS 21680 (adenosine A2A receptor; oral administration): significantly ameliorated |
| Cn1c(=O)c2[nH]cnc2n(C)c1=O [theophylline] |  |  | mean objective disability scores ([2]; 15 Parkinsonian patients, up to 12 weeks, 150 mg/day oral): significant improvements; serum theophylline levels ([2]; slow release oral preparation 150 mg/day, after one week, Parkinsonian patients): 4.44 mg/L |
